From patent US20170050957A1, “4-AMINO-6-(HETEROCYCLIC)PICOLINATES AND 6-AMINO-2-(HETEROCYCLIC)PYRIMIDINE-4-CARBOXYLATES AND THEIR USE AS HERBICIDES” (Dow AgroSciences LLC, priority 2013, published 2017)
Like-named read-outs stand apart in the source and are kept apart here.

What was measured:
[1] = tested on: Key Broadleaf Weed and Crop Species; assay: Post-emergent Test II herbicidal activity (Table 15); type: in vivo; settings: post-emergence, 336 h, 14 d; for pest or weed control at 35 g/ha: 35 g ai/ha; for pest or weed control at 70 g/ha: 70 g ai/ha; for pest or weed control at 140 g/ha: 140 g ai/ha
Outline: (§1)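 Post-emergence spray; seedlings 7-21 d old, 1st-2nd true leaf; 187 L/ha; serial rates 1×-1/16×; solvent blank controls; subirrigated; visual % injury at 14 d.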

[2] = tested on: Key Grass and Sedge Weeds as well as Grass Crops; assay: Post-emergent Test II herbicidal activity (Table 16); type: in vivo; settings: post-emergence, 336 h, 14 d; for pest or weed control at 35 g/ha: 35 g ai/ha; for pest or weed control at 70 g/ha: 70 g ai/ha; for pest or weed control at 140 g/ha: 140 g ai/ha
Outline: as §1

[3] = Abutilon theophrasti, velvetleaf (Abutilon theophrasti), read-out: Visual Growth Reduction (%) 14 Days After Application, ABUTH
[4] = Amaranthus retroflexus, redroot pigweed (Amaranthus retroflexus), read-out: Visual Growth Reduction (%) 14 Days After Application, AMARE
[5] = Brassica napus, oilseed rape, canola (Brassica napus), read-out: Visual Growth Reduction (%) 14 Days After Application, BRSNN
[6] = Chenopodium album, lambsquarters (Chenopodium album), read-out: Visual Growth Reduction (%) 14 Days After Application, CHEAL
[7] = Euphorbia heterophylla, wild poinsettia (Euphorbia heterophylla), read-out: Visual Growth Reduction (%) 14 Days After Application, EPHHL
[8] = Helianthus annuus, sunflower (Helianthus annuus), read-out: Visual Growth Reduction (%) 14 Days After Application, HELAN
[9] = Cyperus esculentus, yellow nutsedge (Cyperus esculentus), read-out: Visual Growth Reduction (%) 14 Days After Application, CYPES
[10] = Echinochloa crus-galli, barnyardgrass (Echinochloa crus-galli), read-out: Visual Growth Reduction (%) 14 Days After Application, ECHCG
[11] = Oryza sativa, rice (Oryza sativa), read-out: Visual Growth Reduction (%) 14 Days After Application, ORYSA
[12] = Setaria faberi, giant foxtail (Setaria faberi), read-out: Visual Growth Reduction (%) 14 Days After Application, SETFA
[13] = Triticum aestivum, wheat, spring (Triticum aestivum), read-out: Visual Growth Reduction (%) 14 Days After Application, TRZAS
[14] = Zea mays, maize, corn (Zea mays), read-out: Visual Growth Reduction (%) 14 Days After Application, ZEAMX

Work on C=Cc1c(C(=O)O)nc(-c2ccc3cc[nH]c3c2F)c(F)c1N [Compound 1.19] yielded a pest or weed control at 35 g/ha [1, 3] of 95 to 100%, a pest or weed control at 70 g/ha [1, 3] of 95 to 100% and a pest or weed control at 140 g/ha [1, 3] of 95 to 100%. The pest or weed control at 35 g/ha [1, 4] was 95 to 100%, the pest or weed control at 70 g/ha [1, 4] was 95 to 100% and the pest or weed control at 140 g/ha [1, 4] was 95 to 100%. It also gave a pest or weed control at 35 g/ha [1, 5] of 95 to 100%, a pest or weed control at 70 g/ha [1, 5] of 95 to 100% and a pest or weed control at 140 g/ha [1, 5] of 95 to 100%. It also gave a pest or weed control at 35 g/ha [1, 6] of 95 to 100%, a pest or weed control at 70 g/ha [1, 6] of 95 to 100% and a pest or weed control at 140 g/ha [1, 6] of 95 to 100%. For the same compound, the pest or weed control at 35 g/ha [1, 7] was 95 to 100%, the pest or weed control at 70 g/ha [1, 7] was 95 to 100% and the pest or weed control at 140 g/ha [1, 7] was 95 to 100%. The pest or weed control at 35 g/ha [1, 8] was 60 to 74%, the pest or weed control at 70 g/ha [1, 8] was 75 to 84% and the pest or weed control at 140 g/ha [1, 8] was 95 to 100%. It also gave a pest or weed control at 35 g/ha [2, 9] of 85 to 94%, a pest or weed control at 70 g/ha [2, 9] of 75 to 84% and a pest or weed control at 140 g/ha [2, 9] of 95 to 100%. It also gave a pest or weed control at 35 g/ha [2, 10] of 85 to 94%, a pest or weed control at 70 g/ha [2, 10] of 85 to 94% and a pest or weed control at 140 g/ha [2, 10] of 95 to 100%. For the same compound, the pest or weed control at 35 g/ha [2, 11] was 30 to 44%, the pest or weed control at 70 g/ha [2, 11] was 45 to 59% and the pest or weed control at 140 g/ha [2, 11] was 60 to 74%. The pest or weed control at 35 g/ha [2, 12] was 60 to 74%, the pest or weed control at 70 g/ha [2, 12] was 75 to 84% and the pest or weed control at 140 g/ha [2, 12] was 85 to 94%. The pest or weed control at 35 g/ha [2, 13] was 60 to 74%, the pest or weed control at 70 g/ha [2, 13] was 75 to 84% and the pest or weed control at 140 g/ha [2, 13] was 75 to 84%. For the same compound, the pest or weed control at 35 g/ha [2, 14] was 60 to 74%, the pest or weed control at 70 g/ha [2, 14] was 60 to 74% and the pest or weed control at 140 g/ha [2, 14] was 85 to 94%.
For COc1c(N)nc(-c2ccc3cc[nH]c3c2F)nc1C(=O)O [Compound 1.35], the pest or weed control at 35 g/ha [1, 3] was 0 to 29%, the pest or weed control at 70 g/ha [1, 3] was 0 to 29% and the pest or weed control at 140 g/ha [1, 3] was 0 to 29%. It also gave a pest or weed control at 35 g/ha [1, 4] of 75 to 84%, a pest or weed control at 70 g/ha [1, 4] of 85 to 94% and a pest or weed control at 140 g/ha [1, 4] of 95 to 100%. For the same compound, the pest or weed control at 35 g/ha [1, 5] was 95 to 100%, the pest or weed control at 70 g/ha [1, 5] was 95 to 100% and the pest or weed control at 140 g/ha [1, 5] was 95 to 100%. The pest or weed control at 35 g/ha [1, 6] was 0 to 29%, the pest or weed control at 70 g/ha [1, 6] was 0 to 29% and the pest or weed control at 140 g/ha [1, 6] was 85 to 94%. It also gave a pest or weed control at 35 g/ha [1, 7] of 75 to 84%, a pest or weed control at 70 g/ha [1, 7] of 75 to 84% and a pest or weed control at 140 g/ha [1, 7] of 85 to 94%. For the same compound, the pest or weed control at 35 g/ha [1, 8] was 30 to 44%, the pest or weed control at 70 g/ha [1, 8] was 60 to 74% and the pest or weed control at 140 g/ha [1, 8] was 95 to 100%. For the same compound, the pest or weed control at 35 g/ha [2, 9] was 0 to 29%, the pest or weed control at 70 g/ha [2, 9] was 0 to 29% and the pest or weed control at 140 g/ha [2, 9] was 0 to 29%. It also gave a pest or weed control at 35 g/ha [2, 10] of 0 to 29%, a pest or weed control at 70 g/ha [2, 10] of 0 to 29% and a pest or weed control at 140 g/ha [2, 10] of 0 to 29%. For the same compound, the pest or weed control at 35 g/ha [2, 11] was 0 to 29%, the pest or weed control at 70 g/ha [2, 11] was 0 to 29% and the pest or weed control at 140 g/ha [2, 11] was 0 to 29%. For the same compound, the pest or weed control at 35 g/ha [2, 12] was 0 to 29%, the pest or weed control at 70 g/ha [2, 12] was 0 to 29% and the pest or weed control at 140 g/ha [2, 12] was 0 to 29%. The pest or weed control at 35 g/ha [2, 13] was 0 to 29%, the pest or weed control at 70 g/ha [2, 13] was 30 to 44% and the pest or weed control at 140 g/ha [2, 13] was 45 to 59%. It also gave a pest or weed control at 35 g/ha [2, 14] of 0 to 29%, a pest or weed control at 70 g/ha [2, 14] of 0 to 29% and a pest or weed control at 140 g/ha [2, 14] of 0 to 29%.
Work on COc1c(N)nc(-c2cc3[nH]ccc3cc2F)nc1C(=O)O [Compound 1.37] yielded a pest or weed control at 35 g/ha [1, 3] of 0 to 29%, a pest or weed control at 70 g/ha [1, 3] of 0 to 29% and a pest or weed control at 140 g/ha [1, 3] of 0 to 29%. For the same compound, the pest or weed control at 35 g/ha [1, 4] was 0 to 29%, the pest or weed control at 70 g/ha [1, 4] was 0 to 29% and the pest or weed control at 140 g/ha [1, 4] was 0 to 29%. For the same compound, the pest or weed control at 35 g/ha [1, 5] was 30 to 44%, the pest or weed control at 70 g/ha [1, 5] was 60 to 74% and the pest or weed control at 140 g/ha [1, 5] was 75 to 84%. The pest or weed control at 35 g/ha [1, 6] was 0 to 29%, the pest or weed control at 70 g/ha [1, 6] was 0 to 29% and the pest or weed control at 140 g/ha [1, 6] was 0 to 29%. The pest or weed control at 35 g/ha [1, 7] was 0 to 29%, the pest or weed control at 70 g/ha [1, 7] was 0 to 29% and the pest or weed control at 140 g/ha [1, 7] was 0 to 29%. It also gave a pest or weed control at 35 g/ha [1, 8] of 0 to 29%, a pest or weed control at 70 g/ha [1, 8] of 0 to 29% and a pest or weed control at 140 g/ha [1, 8] of 0 to 29%. For the same compound, the pest or weed control at 35 g/ha [2, 9] was 0 to 29%, the pest or weed control at 70 g/ha [2, 9] was 0 to 29% and the pest or weed control at 140 g/ha [2, 9] was 0 to 29%. It also gave a pest or weed control at 35 g/ha [2, 10] of 0 to 29%, a pest or weed control at 70 g/ha [2, 10] of 0 to 29% and a pest or weed control at 140 g/ha [2, 10] of 0 to 29%. It also gave a pest or weed control at 35 g/ha [2, 11] of 0 to 29%, a pest or weed control at 70 g/ha [2, 11] of 0 to 29% and a pest or weed control at 140 g/ha [2, 11] of 0 to 29%. The pest or weed control at 35 g/ha [2, 12] was 0 to 29%, the pest or weed control at 70 g/ha [2, 12] was 0 to 29% and the pest or weed control at 140 g/ha [2, 12] was 0 to 29%. It also gave a pest or weed control at 35 g/ha [2, 13] of 0 to 29%, a pest or weed control at 70 g/ha [2, 13] of 0 to 29% and a pest or weed control at 140 g/ha [2, 13] of 0 to 29%. The pest or weed control at 35 g/ha [2, 14] was 0 to 29%, the pest or weed control at 70 g/ha [2, 14] was 0 to 29% and the pest or weed control at 140 g/ha [2, 14] was 0 to 29%.
